According to patent publication US8247211B2, “Glycopeptide antibiotics” (American Cyanamid Company, priority 2001, dated 2012):
≈ marks a conversion by molar mass, not a printed value.

Legend:
Experiment in all cases: In vitro antibacterial evaluation: minimum inhibitory concentration (MIC), broth dilution method
Assay type in all cases: cell-based
Settings in all cases: 18 hours at 35° C.
Staphylococcus sp. = tested on: Staphylococcus sp.
Procedure, shortened: (§1)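 Broth dilution per NCCLS M7-A2 in Muller-Hinton II […], inoculum 5×10^5 CFU/mL, antibiotic tested over 64-0.06 μg/mL. MIC is taken as the lowest concentration that inhibits growth. Panel includes recent clinical isolates resistant to methicillin, penicillin and/or vancomycin.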

Enterococcus sp. = tested on: Enterococcus sp.
Procedure, shortened: as §1

Streptococcus sp. = tested on: Streptococcus sp.
Procedure, shortened: as §1

Escherichia coli = tested on: Escherichia coli
Procedure, shortened: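 Test strains, among them recent clinical isolates carrying methicillin, penicillin and/or vancomycin resistance, were inoculated at 5×10^5 CFU/mL. A broth dilution series spanning 64-0.06 μg/mL in Muller-Hinton II […] (NCCLS M7-A2) defined the MIC as the lowest growth-inhibiting concentration.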

[1] = Enterococcus faecalis (GC 2242)
[2] = Enterococcus faecalis (GC 2691)
[3] = Enterococcus faecalis (GC 3059)
[4] = broth dilution, inoculum 5×10^5 CFU/mL
[5] = Streptococcus agalactiae (GC 4564)
[6] = Streptococcus pneumoniae (ATCC 6301)
[7] = Streptococcus pneumoniae (GC 1894)
[8] = Streptococcus pneumoniae (GC 4565)
[9] = Streptococcus pyogenes (GC 4563)

## COc1ccc(COCC2OC(OC3C(CO)OC(Oc4ccc(CC5NC(=O)C(C(C)c6ccccc6)NC(=O)CNC(=O)C(CO)NC(=O)C(C(O)C6CNC(=N)N6C6OC(CO)C(O)C(O)C6O)NC(=O)C(C(O)C6CNC(=N)N6)NC5=O)cc4)C(O)C3O)C(O)C(O)C2O)cc1OCc1ccccc1 (centres unmarked) [Example 239]
Staphylococcus sp.
  MIC Coagulase Negative Staphylococcus (GC 4547): 2 µg/mL (≈ 1.31 µM)
  MIC Coagulase Negative Staphylococcus (GC 4548): 1 µg/mL (≈ 0.657 µM)
  MIC Coagulase Negative Staphylococcus (GC 4549): 1 µg/mL (≈ 0.657 µM)
  MIC Coagulase Negative Staphylococcus (GC 4551): 2 µg/mL (≈ 1.31 µM)
  MIC Coagulase Negative Staphylococcus (GC 6257): 1 µg/mL (≈ 0.657 µM)
  MIC Staphylococcus aureus (ATCC 29213): 2 µg/mL (≈ 1.31 µM)
  MIC Staphylococcus aureus (GC 1131): 2 µg/mL (≈ 1.31 µM)
  MIC Staphylococcus aureus (GC 3051): 1 µg/mL (≈ 0.657 µM)
  MIC Staphylococcus aureus (GC 3053): 2 µg/mL (≈ 1.31 µM)
  MIC Staphylococcus aureus (GC 4541): 4 µg/mL (≈ 2.63 µM)
  MIC Staphylococcus aureus (GC 4542): 2 µg/mL (≈ 1.31 µM)
  MIC Staphylococcus aureus (GC 4544): 2 µg/mL (≈ 1.31 µM)
  MIC Staphylococcus aureus (GC 4545): 2 µg/mL (≈ 1.31 µM)
  MIC Staphylococcus aureus-SMITH (GC 4543): 2 µg/mL (≈ 1.31 µM)
  MIC Staphylococcus haemolyticus (GC 4546): 1 µg/mL (≈ 0.657 µM)
Enterococcus sp.
  MIC Enterococcus avium (GC 4558): 4 µg/mL (≈ 2.63 µM)
  MIC Enterococcus faecalis (ATCC 29212): 4 µg/mL (≈ 2.63 µM)
  MIC Enterococcus faecalis (GC 4552): 4 µg/mL (≈ 2.63 µM)
  MIC Enterococcus faecalis (GC 4553): 4 µg/mL (≈ 2.63 µM)
  MIC Enterococcus faecalis (GC 4554): 4 µg/mL (≈ 2.63 µM)
  MIC Enterococcus faecalis (GC 6189): 4 µg/mL (≈ 2.63 µM)
  MIC Enterococcus faecium (GC 2243): 4 µg/mL (≈ 2.63 µM)
  MIC Enterococcus faecium (GC 4556): 4 µg/mL (≈ 2.63 µM)
  MIC Enterococcus faecium (GC 4557): 2 µg/mL (≈ 1.31 µM)
Enterococcus sp.; [1]
  MIC Enterococcus faecalis (GC 2242): 4 µg/mL (≈ 2.63 µM)
Enterococcus sp.; [2]
  MIC Enterococcus faecalis (GC 2691): 4 µg/mL (≈ 2.63 µM)
Enterococcus sp.; [3]
  MIC Enterococcus faecalis (GC 3059): 4 µg/mL (≈ 2.63 µM)
Enterococcus sp.; [4]
  MIC Enterococcus faecalis (GC 2242): 4 µg/mL (≈ 2.63 µM)
  MIC Enterococcus faecalis (GC 2691): 4 µg/mL (≈ 2.63 µM)
  MIC Enterococcus faecalis (GC 3059): 4 µg/mL (≈ 2.63 µM)
Streptococcus sp.; [5]
  MIC Streptococcus agalactiae (GC 4564): 0.25 µg/mL (≈ 0.164 µM)
Streptococcus sp.; [6]
  MIC Streptococcus pneumoniae (ATCC 6301): <0.06 µg/mL
Streptococcus sp.; [7]
  MIC Streptococcus pneumoniae (GC 1894): <0.06 µg/mL
Streptococcus sp.; [8]
  MIC Streptococcus pneumoniae (GC 4565): <0.06 µg/mL
Streptococcus sp.; [9]
  MIC Streptococcus pyogenes (GC 4563): 0.25 µg/mL (≈ 0.164 µM)
Streptococcus sp.; [4]
  MIC Streptococcus agalactiae (GC 4564): 0.25 µg/mL (≈ 0.164 µM)
  MIC Streptococcus pneumoniae (ATCC 6301): <0.06 µg/mL
  MIC Streptococcus pneumoniae (GC 1894): <0.06 µg/mL
  MIC Streptococcus pneumoniae (GC 4565): <0.06 µg/mL
  MIC Streptococcus pyogenes (GC 4563): 0.25 µg/mL (≈ 0.164 µM)
Escherichia coli
  MIC Escherichia coli (ATCC 25922): >64 µg/mL
  MIC Escherichia coli (GC 4559): >64 µg/mL
  MIC Escherichia coli (GC 4560): 1 µg/mL (≈ 0.657 µM)

## COc1ccc(COC2C(CO)OC(OC3C(CO)OC(Oc4ccc(CC5NC(=O)C(C(C)c6ccccc6)NC(=O)CNC(=O)C(CO)NC(=O)C(C(O)C6CNC(=N)N6C6OC(CO)C(O)C(O)C6O)NC(=O)C(C(O)C6CNC(=N)N6)NC5=O)cc4)C(O)C3O)C(O)C2O)cc1OCc1ccccc1 (stereo not drawn) [Example 239a, Cyclo[glycyl-β-methylphenylalanyl-O-[4-O-[4-O-[4-methoxy-3-(phenylmethoxy)benzyl]-hexopyranosyl]hexopyranosyl]tyrosyl-3-(2-iminoimidazolidin-4-yl)seryl-3-(3-hexopyranosyl-2-iminoimidazolidin-4-yl)serylseryl]]
Staphylococcus sp.
  MIC Coagulase Negative Staphylococcus (GC 4547): 2 µg/mL (≈ 1.31 µM)
  MIC Coagulase Negative Staphylococcus (GC 4548): 1 µg/mL (≈ 0.657 µM)
  MIC Coagulase Negative Staphylococcus (GC 4549): 2 µg/mL (≈ 1.31 µM)
  MIC Coagulase Negative Staphylococcus (GC 4551): 2 µg/mL (≈ 1.31 µM)
  MIC Coagulase Negative Staphylococcus (GC 6257): 2 µg/mL (≈ 1.31 µM)
  MIC Staphylococcus aureus (ATCC 29213): 4 µg/mL (≈ 2.63 µM)
  MIC Staphylococcus aureus (GC 1131): 4 µg/mL (≈ 2.63 µM)
  MIC Staphylococcus aureus (GC 3051): 2 µg/mL (≈ 1.31 µM)
  MIC Staphylococcus aureus (GC 3053): 4 µg/mL (≈ 2.63 µM)
  MIC Staphylococcus aureus (GC 4541): 4 µg/mL (≈ 2.63 µM)
  MIC Staphylococcus aureus (GC 4542): 4 µg/mL (≈ 2.63 µM)
  MIC Staphylococcus aureus (GC 4544): 4 µg/mL (≈ 2.63 µM)
  MIC Staphylococcus aureus (GC 4545): 4 µg/mL (≈ 2.63 µM)
  MIC Staphylococcus aureus-SMITH (GC 4543): 2 µg/mL (≈ 1.31 µM)
  MIC Staphylococcus haemolyticus (GC 4546): 2 µg/mL (≈ 1.31 µM)
Enterococcus sp.
  MIC Enterococcus avium (GC 4558): 8 µg/mL (≈ 5.26 µM)
  MIC Enterococcus faecalis (ATCC 29212): 8 µg/mL (≈ 5.26 µM)
  MIC Enterococcus faecalis (GC 4552): 8 µg/mL (≈ 5.26 µM)
  MIC Enterococcus faecalis (GC 4553): 8 µg/mL (≈ 5.26 µM)
  MIC Enterococcus faecalis (GC 4554): 16 µg/mL (≈ 10.5 µM)
  MIC Enterococcus faecalis (GC 6189): 8 µg/mL (≈ 5.26 µM)
  MIC Enterococcus faecium (GC 2243): 8 µg/mL (≈ 5.26 µM)
  MIC Enterococcus faecium (GC 4556): 8 µg/mL (≈ 5.26 µM)
  MIC Enterococcus faecium (GC 4557): 4 µg/mL (≈ 2.63 µM)
Enterococcus sp.; [1]
  MIC Enterococcus faecalis (GC 2242): 8 µg/mL (≈ 5.26 µM)
Enterococcus sp.; [2]
  MIC Enterococcus faecalis (GC 2691): 8 µg/mL (≈ 5.26 µM)
Enterococcus sp.; [3]
  MIC Enterococcus faecalis (GC 3059): 8 µg/mL (≈ 5.26 µM)
Enterococcus sp.; [4]
  MIC Enterococcus faecalis (GC 2242): 8 µg/mL (≈ 5.26 µM)
  MIC Enterococcus faecalis (GC 2691): 8 µg/mL (≈ 5.26 µM)
  MIC Enterococcus faecalis (GC 3059): 8 µg/mL (≈ 5.26 µM)
Streptococcus sp.; [5]
  MIC Streptococcus agalactiae (GC 4564): 1 µg/mL (≈ 0.657 µM)
Streptococcus sp.; [6]
  MIC Streptococcus pneumoniae (ATCC 6301): 0.25 µg/mL (≈ 0.164 µM)
Streptococcus sp.; [7]
  MIC Streptococcus pneumoniae (GC 1894): <0.06 µg/mL
Streptococcus sp.; [8]
  MIC Streptococcus pneumoniae (GC 4565): 0.25 µg/mL (≈ 0.164 µM)
Streptococcus sp.; [9]
  MIC Streptococcus pyogenes (GC 4563): 2 µg/mL (≈ 1.31 µM)
Streptococcus sp.; [4]
  MIC Streptococcus agalactiae (GC 4564): 1 µg/mL (≈ 0.657 µM)
  MIC Streptococcus pneumoniae (ATCC 6301): 0.25 µg/mL (≈ 0.164 µM)
  MIC Streptococcus pneumoniae (GC 1894): <0.06 µg/mL
  MIC Streptococcus pneumoniae (GC 4565): 0.25 µg/mL (≈ 0.164 µM)
  MIC Streptococcus pyogenes (GC 4563): 2 µg/mL (≈ 1.31 µM)
Escherichia coli
  MIC Escherichia coli (ATCC 25922): >64 µg/mL
  MIC Escherichia coli (GC 4559): >64 µg/mL
  MIC Escherichia coli (GC 4560): 2 µg/mL (≈ 1.31 µM)
